Assay [1] relates to LTB4 biosynthesis in human PMNL. As to the kind of experiment: Inhibition of calcium ionophore A23187-induced LTB4 biosynthesis in human polymorphonuclear leukocytes (PMNL). The format is cell-based. The settings on record: human PMNL (5×10^6 cells/250 μL), 15 min preincubation at 37° C., A23187 8.3 μM, 10 min, LTB4 by HPLC. As to the method: Inhibition of leukotriene biosynthesis was evaluated in assays, involving calcium ionophore-induced LTB4 biosynthesis expressed by human polymorphonuclear leukocytes (PMNL) or human whole blood. Human PMNL were isolated from heparinized (20 USP units/mL) venous blood using Ficoll-Hypaque Mono-Poly Resolving Medium. Human PMNL suspensions (5×10^6 cells/250 μL) were preincubated with test compounds or vehicle for 15 min at 37° C. followed by calcium ionophore A23187 challenge (final concentration of 8.3 μM) and the reaction terminated after 10 min by adding two volumes of methanol containing prostaglandin B2 as an internal recovery standard. The methanol extracts were analyzed for LTB4 content by HPLC.

For assay [2], the system named is LTB4 biosynthesis in human whole blood. Nature of the assay: Inhibition of calcium ionophore A23187-induced LTB4 biosynthesis in human whole blood. The format is cell-based. The settings on record: 0.5 h; human heparinized whole blood, A23187 50 μM, 30 minutes at 37° C., LTB4 by radioimmunoassay. The procedure: The assay using human heparinized whole blood was incubated for 30 minutes at 37° C. after adding 50 μM of ionophore A23187. The plasma layer was obtained by centrifugation and deproteinized by the addition of four volumes of methanol. The methanol extract was analyzed for LTB4 using a commercially available radioimmunoassay.

The test system of another assay is leukotriene biosynthesis. As to the kind of experiment: Inhibition of leukotriene biosynthesis in vivo, rat peritoneal anaphylaxis model, oral administration. Conditions: for percent inhibition of leukotriene biosynthesis: oral dose of 30 μmol/kg, gavage one hour prior to antigen challenge. As to the method:
Inhibition of the biosynthesis of leukotrienes in vivo after oral administration of compound was determined using a rat peritoneal anaphylaxis model in a similar manner as that described by Young and coworkers (Young, P. R.; Dyer, R. D.; Carter, G. W. Fed. Proc., Fed. Am. Soc. Exp. Biol. 1985, 44, 1185). In this model rats were injected intraperitoneally (ip) with rabbit antibody to bovine serum albumin (BSA) and three hours later injected ip with BSA to induce an antigen-antibody response. Rats were sacrificed 15 minutes after this challenge and the peritoneal fluids were collected and analyzed for leukotriene levels. Test compounds were administered by gavage one hour prior to the antigen challenge. Percent inhibition values were determined by comparing the treatment group to the mean of the control group. […] Compounds 5, 8, and 9 inhibit>50% leukotriene biosynthesis with an oral dose of 30 μmol/kg.

The term IC50 denotes the point on the concentration scale where inhibition reaches its midpoint. For `CC(C)(C)Sc1c(CC(C)(C)C(=O)O)n(Cc2ccc(Cl)cc2)c2ccc(OCc3cccnc3)cc12` [Example 1, 3-[1-(4-chlorobenzyl)-3-(1,1-dimethylethylthio)-5-(pyrid-3-ylmethoxy)-indol-2-yl]-2,2-dimethylpropionic acid], the IC50 in assay [1] was 0.017 µM; in assay [2], 1.09 µM.
As to `CC(C)(C)Sc1c(CC(C)(C)C(=O)O)n(Cc2ccc(Cl)cc2)c2ccc(OCc3ccncc3)cc12` [Example 2, 3-[1-(4-chlorobenzyl)-3-(1,1-dimethylethylthio)-5-(pyrid-4-ylmethoxy)-indol-2-yl]-2,2-dimethylpropionic acid], the IC50 in assay [1] was below 0.1 µM; in assay [2], 0.84 µM.
As a reminder, the ED50 is the midpoint of the dose-response relation. Take `CC(C)(C)Sc1c(CC(C)(C)C(=O)O)n(Cc2ccc(Cl)cc2)c2ccc(OCc3ccccn3)cc12` [Example 3, 3-[1-(4-chlorobenzyl)-3-(1,1-dimethylethylthio)-5-(pyrid-2-ylmethoxy)indol-2-yl]-2,2-dimethylpropionic acid]: the half-inhibitory concentration (IC50) was below 0.05 µM in assay [1] and 0.05 µM in assay [2]. In addition, the 50% effective dose (ED50) with leukotriene biosynthesis (1 h, po (gavage) one hour prior to antigen challenge, read-out: inhibits leukotriene biosynthesis, ED50) was found to be 0.1 mg/kg.
Turning to `CC(C)(C)Sc1c(CC(C)(C)C(=O)O)n(Cc2ccc(Cl)cc2)c2ccc(OCc3ccc4ccccc4c3)cc12` [Example 4, 3-[1-(4-chlorobenzyl)-3-(1,1-dimethylethylthio)-5-(napth-2-ylmethoxy)indol-2-yl]-2,2-dimethylpropionic acid], the half-inhibitory concentration (IC50) in assay [1] turned out to be 0.012 µM; in assay [2], 4.42 µM.
Turning to `CC(C)(C)Sc1c(CC(C)(C)C(=O)O)n(Cc2ccc(Cl)cc2)c2ccc(Oc3ccccn3)cc12` [Example 5, 3-[1-(4-chlorobenzyl)-3-(1,1-dimethylethylthio)-5-(pyrid-2-yloxy)indol-2-yl]-2,2-dimethylpropionic acid], the half-inhibitory concentration (IC50) in assay [1] amounted to 0.015 µM; in assay [2], 2.47 µM. Also, the “percent inhibition of leukotriene biosynthesis” value (“percent inhibition” below) with leukotriene biosynthesis is given as above 50%.
Take `CC(C)(C)Sc1c(CC(C)(C)C(=O)O)n(Cc2ccc(Cl)cc2)c2ccc(OCc3ccc(Cl)s3)cc12` [Example 6, 3-[1-(4-chlorobenzyl)-5-(5-chlorothien-2-ylmethoxy)-3-(1,1-dimethylethylthio)indol-2-yl]-2,2-dimethylpropionic acid]: the figures for the IC50 in assay [1] and in assay [2] were below 0.8 µM and 3.2 µM, respectively.
Taken in the same sequence, the figures for `Cc1cc(C)nc(COc2ccc3c(c2)c(SC(C)(C)C)c(CC(C)(C)C(=O)O)n3Cc2ccc(Cl)cc2)n1` [Example 7, 3-[1-(4-chlorobenzyl)-3-(1,1-dimethylethylthio)-5-(4,6-dimethylpyrimid-2-ylmethoxy)indol-2-yl]-2,2-dimethylpropionic acid] were 0.03 µM and 1.6 µM.
For `CC(C)(C)Sc1c(CC(C)(C)C(=O)O)n(Cc2ccc(Cl)cc2)c2ccc(OCc3cccc(Cl)n3)cc12` [Example 8, 3-[1-(4-chlorobenzyl)-5-(6-chloropyrid-2-ylmethoxy)-3-(1,1-dimethylethylthio)indol-2-yl]-2,2-dimethylpropionic acid], the figures for the IC50 in assay [1] and in assay [2] were 0.017 µM and 0.11 µM, respectively. Also, in the assay on leukotriene biosynthesis, the “percent inhibition” value is above 50%.
With `CC(C)(C)Sc1c(CC(C)(C)C(=O)O)n(Cc2ccc(Cl)cc2)c2ccc(OCc3cscn3)cc12` [Example 9, 3-[1-(4-chlorobenzyl)-3-(1,1-dimethylethylthio)-5-(thiazol-4-ylmethoxy)indol-2-yl]-2,2-dimethylpropionic acid], the 50% inhibitory concentration (IC50) came out at 0.0044 µM in assay [1] and 0.04 µM in assay [2]. Further, the “percent inhibition” value with leukotriene biosynthesis is above 50%.
`CC(C)(C)Sc1c(CC(C)(C)C(=O)O)n(Cc2ccc(Cl)cc2)c2ccc(OCc3cccs3)cc12` [Example 10, 3-[1-(4-chlorobenzyl)-3-(1,1-dimethylethylthio)-5-(thien-2-ylmethoxy)indol-2-yl]-2,2-dimethylpropionic acid]: the IC50 in assay [1] amounted to 0.007 µM; in assay [2] it was 1.4 µM.

For the origin of these results see patent publication US5288743A, “Indole carboxylate derivatives which inhibit leukotriene biosynthesis” (Abbott Laboratories, priority 1992, dated 1994).
